Source: patent US4385055A, “2-Acetyl-and 2-propionylpyridine thiosemicarbazones as antimalarials” (The United States of America as represented by the …, priority 1981, dated 1983)
Values after ≈ are worked out from the molar mass of the structure shown. Where two headings read alike, the source gives them in different places. One block for each molecule: values may come before it.

Experiments:
Assay type in all cases: cell-based
Mycobacterium smegmatis = test: MIC against Mycobacterium smegmatis strains (Test 4); conditions: Mycolicibacterium smegmatis, read-out: Minimum Inhibitory Concentration
Method: Compounds were tested against four strains of Mycobacterium smegmatis. The test procedure used was as mentioned by N. E. Morrison [Int. J. of Leprosy 39:34-43 (1971)]. The strain numbers refer to Mycobacterium smegmatis ATCC 607, a DDS-resistant daughter strain, a Rifampin-resistant daughter strain, and a Clofazimine-resistant daughter strain, respectively.

Neisseria meningitidis = test: Macro broth dilution MIC, Neisseria meningitidis isolates (Test 2); conditions: Neisseria meningitidis, 24 h, read after 24 hours, read-out: Minimum Inhibitory Concentration
Method: Compounds were tested against five isolates of Neisseria meningitidis. The bacterial isolates were provided by the Department of Bacterial Diseases of the Walter Reed Army Institute of Research. The test procedure used was the macro broth dilution method in duplicate outlined by J. C. Sherris on pages 414-415 (loc. cit.). The test compounds and controls were prepared as in Test 1 above. Ampicillin and penicillin standards were initially diluted as described by J. C. Sherris on pages 411-412 (loc. cit.) followed by dilution with Mueller-Hinton broth. The tubes were incubated at 37° C. under 5-10% carbon dioxide.

Group D Enterococcus = test: Macro broth dilution MIC, Group D Enterococcus isolates (Test 1); conditions: 24 h, read after 24 hours, read-out: Minimum Inhibitory Concentration
Method: Compounds were tested against five isolates of Staphylococcus aureus and five isolates of Group D Enterococcus. The bacteria used were isolated from patients at the Walter Reed Army Medical Center, Washington, D.C. The test procedure used was the macro broth dilution method in duplicate as outlined by J. C. Sherris on pages 414-415 in "Manual of Clinical Microbiology," 2nd ed., E. Lennette, E. H. Spaulding, and J. P. Truant, Ed. (American Society for Microbiology, Washington, D.C., 1974). Each compound was dissolved in DMSO (12.8 mg/mL) and then diluted with Mueller-Hinton broth to obtain the desired dilutions. Tubes containing the highest quantities of DMSO with no compound present were run as controls.

Neisseria gonorrhoeae = test: Agar dilution MIC, Neisseria gonorrhoeae isolates (Test 3); conditions: 24 h, read-out: Minimum Inhibitory Concentration
Method: Compounds were tested against six Neisseria gonorrhoeae isolates. The bacteria used were provided by the Department of Bacterial Diseases of the Walter Reed Army Institute of Research. The test procedure used was the agar dilution method in duplicate as outlined by J. C. Sherris on pages 411-412 (loc. cit.). GC Medium (Difco) with a 2% defined supplement added as described by D. S. Kellogg et al. [J. Bact. 85:1274-1279 (1963)] was used as the media. The compounds were dissolved in DMSO (1.0 mg/mL), diluted with GC broth (GC Medium without agar) to the appropriate concentration, and added to the GC Medium at 55°-56° C. The latter was then poured and allowed to solidify. A penicillin standard was also prepared with initial dilutions as described by J. C. Sherris followed by dilutions with GC broth and addition to the GC Medium at 55°-56° C. as above. The inoculum was 1:200 GC broth dilution of a suspension of colony isolates after the suspension was adjusted visually to the turbidity standard described by J. M. Matsen and A. L. Barr on page 422 in "Manual of Clinical Microbiology," 2nd ed., E. Lennette, E. H. Spaulding, and J. P. Truant, Ed. (American Society for Microbiology, Washington, D.C., 1974). The plates were inoculated with a replicator and incubated at 37° C. under 5-10% carbon dioxide.

[1] = ATCC607, Mycobacterium smegmatis strain I (ATCC 607)
[2] = Mycobacterium smegmatis strain II (DDS-resistant daughter strain)
[3] = Mycobacterium smegmatis strain III (Rifampin-resistant daughter strain)
[4] = Mycobacterium smegmatis strain IV (Clofazimine-resistant daughter strain)
[5] = Neisseria gonorrhoeae isolate 135, read after 24 hours
[6] = Neisseria gonorrhoeae isolate 161, read after 24 hours
[7] = Neisseria gonorrhoeae isolate 278, read after 24 hours
[8] = Neisseria gonorrhoeae isolate 455, read after 24 hours
[9] = Neisseria gonorrhoeae isolate 456, read after 24 hours
[10] = Neisseria gonorrhoeae isolate 602, read after 24 hours

SMILES: C=CCNC(=S)NN=C(C)c1ccccn1 [A, 2-Acetylpyridine 4-allyl-3-thiosemicarbazone]
MIC (Mycobacterium smegmatis; [1]): < 1 µg/mL | MIC (Mycobacterium smegmatis; [2]): < 1 µg/mL | MIC (Mycobacterium smegmatis; [3]): < 1 µg/mL | MIC (Mycobacterium smegmatis; [4]): < 1 µg/mL

MIC (Neisseria meningitidis; Neisseria meningitidis isolate 7957): 0.008 µg/mL (≈ 0.0229 µM) | MIC (Neisseria meningitidis; Neisseria meningitidis isolate 7990): 0.008 µg/mL (≈ 0.0229 µM) | MIC (Neisseria meningitidis; Neisseria meningitidis isolate 8005): 0.008 µg/mL (≈ 0.0229 µM) | MIC (Neisseria meningitidis; Neisseria meningitidis isolate 8006): 0.016 µg/mL (≈ 0.0458 µM) | MIC (Neisseria meningitidis; Neisseria meningitidis isolate 8011): 0.016 µg/mL (≈ 0.0458 µM)
SMILES: CC1(C)S[C@@H]2[C@H](NC(=O)[C@H](N)c3ccccc3)C(=O)N2[C@H]1C(=O)O [Ampicillin, reference compound]

SMILES: CC(C)/N=c1\cc2n(-c3ccc(Cl)cc3)c3ccccc3nc-2cc1Nc1ccc(Cl)cc1 [Clofazimine, reference compound]
MIC (Mycobacterium smegmatis; [1]): 1.5 µg/mL (≈ 3.17 µM) | MIC (Mycobacterium smegmatis; [4]): 20 µg/mL (≈ 42.2 µM)

SMILES: Nc1ccc(S(=O)(=O)c2ccc(N)cc2)cc1 [DDS, reference compound]
MIC (Mycobacterium smegmatis; [1]): 2 µg/mL (≈ 8.05 µM) | MIC (Mycobacterium smegmatis; [2]): 400 µg/mL (≈ 1610 µM)

SMILES: CC(=NNC(=S)N1CCC1)c1ccccn1 [FF, Azetidine-1-thiocarboxylic acid 2-[1-(2-pyridyl)ethylidene]hydrazide]
MIC (Mycobacterium smegmatis; [1]): 2 µg/mL (≈ 8.54 µM) | MIC (Mycobacterium smegmatis; [2]): 2 µg/mL (≈ 8.54 µM) | MIC (Mycobacterium smegmatis; [3]): < 1 µg/mL | MIC (Mycobacterium smegmatis; [4]): < 1 µg/mL

MIC (Group D Enterococcus; Group D Enterococcus isolate I): 8 µg/mL (≈ 26.1 µM) | MIC (Group D Enterococcus; Group D Enterococcus isolate II): 4 µg/mL (≈ 13.1 µM) | MIC (Group D Enterococcus; Group D Enterococcus isolate III): 4 µg/mL (≈ 13.1 µM) | MIC (Group D Enterococcus; Group D Enterococcus isolate IV): 4 µg/mL (≈ 13.1 µM) | MIC (Group D Enterococcus; Group D Enterococcus isolate V): 4 µg/mL (≈ 13.1 µM)
SMILES: CC(=NNC(=S)NC(C)(C)CC(C)(C)C)c1ccccn1 [G, 2-Acetylpyridine 4-(1,1,3,3-tetramethylbutyl)-3-thiosemicarbazone]

MIC (Neisseria gonorrhoeae; [5]): 0.008 µg/mL (≈ 0.0305 µM) | MIC (Neisseria gonorrhoeae; [6]): 0.004 µg/mL (≈ 0.0152 µM) | MIC (Neisseria gonorrhoeae; [7]): 0.008 µg/mL (≈ 0.0305 µM) | MIC (Neisseria gonorrhoeae; [8]): 0.008 µg/mL (≈ 0.0305 µM) | MIC (Neisseria gonorrhoeae; [9]): 0.008 µg/mL (≈ 0.0305 µM) | MIC (Neisseria gonorrhoeae; [10]): 0.008 µg/mL (≈ 0.0305 µM)
SMILES: CC(=NNC(=S)N1CCCCC1)c1ccccn1 [GG, Piperidine-1-thiocarboxylic acid 2-[1-(2-pyridyl)ethylidene]hydrazide]

SMILES: CC(=NNC(=S)N1CCCC1)c1ccccn1 [HH, 1-Azacyclopentane-1-thiocarboxylic acid 2-[1-(2-pyridyl)ethylidene]hydrazide]
MIC (Neisseria gonorrhoeae; [5]): 0.008 µg/mL (≈ 0.0322 µM) | MIC (Neisseria gonorrhoeae; [6]): 0.004 µg/mL (≈ 0.0161 µM) | MIC (Neisseria gonorrhoeae; [7]): 0.008 µg/mL (≈ 0.0322 µM) | MIC (Neisseria gonorrhoeae; [8]): 0.008 µg/mL (≈ 0.0322 µM) | MIC (Neisseria gonorrhoeae; [9]): 0.008 µg/mL (≈ 0.0322 µM) | MIC (Neisseria gonorrhoeae; [10]): 0.008 µg/mL (≈ 0.0322 µM) | MIC (Mycobacterium smegmatis; [1]): 2 µg/mL (≈ 8.05 µM) | MIC (Mycobacterium smegmatis; [2]): 3 µg/mL (≈ 12.1 µM) | MIC (Mycobacterium smegmatis; [3]): 2 µg/mL (≈ 8.05 µM) | MIC (Mycobacterium smegmatis; [4]): 4 µg/mL (≈ 16.1 µM)
